# Reference: US11479533B2, “Inhibitors of Rho associated coiled-coil containing protein kinase” (KADMON CORPORATION, LLC, priority 2017, dated 2022)
# Key:
# [1] = target: recombinant ROCK2 (amino acids 1-552) (Homo sapiens (Human), UniProt O75116); assay: Z'-lyte kinase assay, ROCK2; type: biochemical
# Summary of the method: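 Inhibition of recombinant human ROCK2 (residues 1-552, sourced from ThermoFisher Scientific) was assessed in vitro with the Z'-lyte kinase kit. Kinase activity with compound was normalized to DMSO control to give percent inhibition. IC50s came from 9-point 2-fold serial dilutions fitted by nonlinear regression in GraphPad Prism.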
# [2] = target: recombinant ROCK1 (amino acids 1-535) (Homo sapiens (Human), UniProt Q13464); assay: Z'-lyte kinase assay, ROCK1; type: biochemical; conditions: @ 0.5 μM; read-out: ROCK1 % inh (0.5 μM)
# Experimental: Determination of compounds ROCK inhibitory activity in vitro (Z'lyte assay): recombinant ROCK1 (amino acids 1-535) and ROCK2 (amino acids 1-552) proteins were purchased from ThermoFisher Scientific. Compounds activities were measured by Z'-lyte kinase kit (ThermoFisher Scientific) and IC50s were calculated.
# Compounds activities were measured by Z'-lyte kinase kit (ThermoFisher Scientific). […] IC50s were calculated using the GraphPad Prism software with kinase activities data that were collected from 9 points serial dilution of compounds treatment. The ROCK inhibition in A7R5 cells and NIH3T3 (Acta2-Luc) cells was performed as described above.
# The percent inhibition rate was calculated by normalizing the kinase activity value obtained with compound treatment against DMSO control value and then applied to the equation, […]. IC50's were calculated using the nonlinear regression curve fit function of the GraphPad Prism software with kinase activities data measured with 9 points 2-fold serial dilution of compounds treatment.
# [3] = system: ppMlc (T18/S19) levels in A7R5 cells; assay: A7R5 in-cell ELISA assay (ppMlc); type: cell-based, rat; conditions: Rattus norvegicus, A7R5, A7R5 cells, Table 2; read-out: pMLC IC50 (nM) A7R5
# Summary of the method: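 Rat aortic smooth muscle A7R5 cells in DMEM with 10% FBS, seeded 24 h, then treated 90 min with 9-point 2-fold compound dilutions. ppMlc (T18/S19) measured by colorimetric in-cell ELISA; cellular IC50 from nonlinear regression curve fit.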
# [4] = system: ACTA2-promoter-driven-luciferase in NIH3T3 cells; assay: NIH3T3 Acta2-promoter driven-luciferase assay; type: cell-based; conditions: Mus musculus, plus TGFβ1, 24 hr, read-out: NIH3T3, Acta2-luc, IC50
# Summary of the method: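 Stable NIH3T3 line carrying luciferase reporter under human ACTA2 promoter (−1000-1 bp); confluent cells given 9-point compound dilutions with TGFβ1 for 24 hr. Lysed cells read for luciferase; IC50 from nonlinear regression fit.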
# [5] = system: human oligodendrocyte/neuron progenitor cells; assay: Neurite outgrowth and differentiation of human oligodendrocyte/neuron progenitors; type: cell-based
# Experimental: Thawing and proliferation of human oligodendrocyte/neuron progenitor cells (OPCs). Cryopreserved human oligodendrocyte/neuron progenitors (Millipore Cat. No. CS204496) were recovered and cultured on maltrigel (BD Cat. No. 356324) coated T-25 flask in expansion media containing OPC/neuron basal medium, N21 medium supplement, recombinant human bFGF, PDGF-AA and NT-3. When cells reached 80% confluent, 3 ml of Accutase was applied (Millipore SCR005) to passage cells at 1:4 ratio. Sub-cultured cells were maintained in expansion media for proliferation.
# Spontaneous differentiation of human oligodendrocyte/neuron progenitors in 24-well and 96-well plates. Coat plate with 10 μg/ml poly-L-ornithine (Sigma Cat. No. P4957) overnight at room temperature. Remove the poly-L-ornithine solution and rinse the plate with 1×PBS, add 10 μg/ml laminin (Millipore Cat. No. CC095) and incubate at 37° C. for at least 2 hours. Seed cells on the coated plates in expansion media and allowed to attach overnight. The next day expansion media was removed and replaced with freshly prepared spontaneous differentiation media only containing OPC/neuron basal media and N21 media supplement. For 14 day culture, differentiation media was replaced every 3-4 days. Cells were imaged and neurite length was analyzed by IncuCyte S3 Live Cell Analysis System every 4 hours. After 14 days of differentiation, cells were fixed by 4% paraformaldehyde and stained with DAPI and Neuron-specific ß-III tubulin antibody (R&D systems, NL1195R).
# [6] = system: human oligodendrocyte/neuron progenitor cells; assay: Chondroitin Sulfate Proteoglycan (CSPG) assay on human oligodendrocyte/neuron progenitors; type: cell-based; conditions: 1 μM and 3 μM, 72 hour
# Experimental: Chondroitin Sulfate Proteoglycan (CSPG) assay on human oligodendrocyte/neuron progenitors in 96-well plate. […] Cells were seeded on the coated plates at a density of 6,000 cells per well in expansion media. The following day the expansion media was replaced with fresh spontaneous differentiation media containing testing compounds. Cells were imaged and neurite length was analyzed by IncuCyte S3 Live Cell Analysis System every 4 hours.
# [7] = system: human oligodendrocyte/neuron progenitor cells; assay: Aβ 1-42 induced cell death assay on human oligodendrocyte/neuron progenitors; type: cell-based; conditions: 3 μM, 10.5 μM Aβ1-42, 24 hour
# Experimental: Aβ 1-42 induced cell death assay on human oligodendrocyte/neuron progenitors in 96-well plate. Cells were seeded on poly-L-ornithine and laminin coated plates at a density of 8,000 cells per well and maintained in expansion media until Day 3, then media was replaced with fresh spontaneous differentiation media containing testing compounds and IncuCyte Annexin V Red Reagent (1:200 dilution) (Essen BioScience Cat. No. 4641). After the pre-incubation period of 30 minutes at 37° C., 10.5 μM Aβ 1-42 (Bachem Product No. H-8146) was added directly in the pretreatment solution. Neurite length and total Annexin V positive area were analyzed by IncuCyte S3 Live Cell Analysis System every 2 hours.
# In addition to promoting neuroregeneration, ROCK inhibitors have been reported to exert neuroprotective effects and prolong neuronal survival. Here we test the neuroprotective effect of ROCK inhibitors against Aβ1-42. Human oligodendrocyte/neuron progenitor cells were pre-incubated with ROCK inhibitors for 30 minutes before exposing to 10.5 μM Aβ1-42. IncuCyte Annexin V Red Reagent was added to culture media to label cell apoptosis. Pictures were taken by IncuCyte S3 and total Annexin V positive area was analyzed by IncuCyte S3 base software. Neurite length was quantified by IncuCyte NeuroTrack Software Module, see FIGS. 3b and 3c.
# [8] = cited from earlier work
# sAPPβ = conditions: direct injection into hippocampus; cited from earlier work
# Chain of recombinant ROCK2 (amino acids 1-552) (O75116 1-552): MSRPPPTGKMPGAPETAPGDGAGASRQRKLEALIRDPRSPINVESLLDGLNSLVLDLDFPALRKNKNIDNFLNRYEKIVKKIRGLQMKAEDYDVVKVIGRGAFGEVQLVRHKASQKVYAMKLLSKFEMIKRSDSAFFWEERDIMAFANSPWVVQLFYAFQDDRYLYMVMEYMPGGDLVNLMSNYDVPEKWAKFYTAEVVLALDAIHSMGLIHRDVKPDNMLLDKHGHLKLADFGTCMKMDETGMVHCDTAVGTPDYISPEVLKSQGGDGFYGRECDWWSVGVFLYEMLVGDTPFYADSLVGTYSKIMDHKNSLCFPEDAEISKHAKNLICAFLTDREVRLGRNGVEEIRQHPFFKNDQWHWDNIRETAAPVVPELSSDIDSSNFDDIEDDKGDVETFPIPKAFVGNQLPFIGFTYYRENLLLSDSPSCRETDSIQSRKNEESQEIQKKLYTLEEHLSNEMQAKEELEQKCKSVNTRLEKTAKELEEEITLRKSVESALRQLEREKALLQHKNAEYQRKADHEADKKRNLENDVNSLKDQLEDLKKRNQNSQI
# Chain of recombinant ROCK1 (amino acids 1-535) (Q13464 1-535): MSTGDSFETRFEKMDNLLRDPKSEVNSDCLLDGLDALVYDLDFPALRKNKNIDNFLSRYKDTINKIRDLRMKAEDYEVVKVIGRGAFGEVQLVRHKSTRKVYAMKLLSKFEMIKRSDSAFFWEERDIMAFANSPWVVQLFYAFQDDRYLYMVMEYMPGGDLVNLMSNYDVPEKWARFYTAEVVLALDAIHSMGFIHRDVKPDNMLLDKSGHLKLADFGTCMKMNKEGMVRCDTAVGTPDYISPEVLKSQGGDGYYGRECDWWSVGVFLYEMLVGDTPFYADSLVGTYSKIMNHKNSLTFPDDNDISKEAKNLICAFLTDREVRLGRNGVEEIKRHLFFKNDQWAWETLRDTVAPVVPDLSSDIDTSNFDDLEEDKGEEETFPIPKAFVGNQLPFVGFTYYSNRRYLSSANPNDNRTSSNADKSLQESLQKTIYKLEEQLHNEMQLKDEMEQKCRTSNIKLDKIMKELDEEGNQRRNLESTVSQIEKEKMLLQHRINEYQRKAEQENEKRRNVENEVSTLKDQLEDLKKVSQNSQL
IC50 [1] [nM],"inhibition at 0.5 µM ([1]; @ 0.5 μM, read-out: ROCK2 % inh (0.5 μM)) [%]",inhibition at 0.5 µM [2] [%],IC50 [3] [nM],SMILES,IC50 [4] [nM],"neuronal differentiation and maturation ([5]; 14 days culture, Beta III tubulin)","neurite length ([5]; various concentrations, 3 days culture)",CSPG mediated neurite outgrowth arrest [6],Aβ1-42 induced cell death (Annexin V area) [7],neurite outgrowth in the presence of Aβ1-42 [7],brain penetration ([8]; in vivo),half-life ([8]; oral PK) [h],oral bioavailability (F) ([8]; oral) [%],sAPPβ (sAPPβ)
6.3,98,99,60,"CNC(C(=O)Nc1ccc(-c2cn[nH]c2)cc1)c1ccc(Cl)cc1 (centres unmarked) [Example 17, N-(4-(1H-pyrazol-4-yl)phenyl)-2-(4-chlorophenyl)-2-(methylamino)acetamide]",108,facility neuronal differentiation and maturation,significantly increase neurite length,significantly counteract,significantly protect,promoted neurite outgrowth,,,,
,,,,CN(C)CCOc1cc(-c2cn[nH]c2)ccc1NC(=O)C1COc2ccccc2O1 (centres unmarked) [SR3677],,,,,,,lack of brain penetration,< 1,5,lowering sAPPβ
